Assay results reported in patent publication US20240344145A1, “PHARMACOGENOMICS SCORE TO MAKE DECISIONS ON THERAPY AUGMENTATION IN AML” (University of Florida Research Foundation, Incorporated, priority 2021, published 2024).

Test system: ara-C metabolic pathway genes
Experiment: Association of ara-C pathway SNP genotypes with MRD1, EFS and OS in AML02 (logistic regression and Cox models; also within LDAC and HDAC arms)
Parameters: species or system human
Details: within arm of AML02
From the text: Genomic DNA from patients enrolled in the multi-site St. Jude AML02 trial was genotyped for 155 SNPs in 16 genes of relevance to ara-C pharmacology using sequenom iPlex platform that uses MALDI-TOF based chemistry at University of Minnesota, Biomedical Genomics Center. SNPs were selected based on previously reported studies. For SNPs lacking literature on genetic variation, SNPs were selected to capture LD blocks (European and African ancestry) on a gene. Of 155 SNPs, 1 SNP was excluded due to low call rate (<90%), 47 SNPs were excluded due to minimum allele frequency of less than 5%, 11 SNPs were excluded due to high LD (r^2>0.9) with other SNPs; two SNPs were excluded because of deviation from Hardy-Weinberg equilibrium. Genotype for the COG-AAML0531 cohort for the selected SNPs was obtained using sequenom platform or TaqMan genotyping assays, and for a few SNPs was extracted from the data available on Illumina 2.5 Omni array. Genotype calls from multiple platforms were confirmed across multiple samples randomly collected from the cohort.
SNP genotype groups in three different modes of inheritance (additive, dominant, and recessive) were tested for association with MRD1 using logistic regression models. Odds ratio (OR) and 95% confidence interval (CI) were calculated for each test. SNPs with association P-value<0.05 were considered significant. Cox-proportional hazard models were used to evaluate association of genotype groups with EFS or OS. Hazard ratio (HR) and 95% CI were calculated for each test. p-value<0.05 was considered statistically significant. Given initial risk group assignments are well-established prognostic factors associated with outcome, outcome association analysis of SNPs with and without adjusting for risk group was also performed to identify SNPs that are associated with outcome independent of risk group.
SNPs with p<0.15 in risk-adjusted univariate evaluation with clinical endpoints (MRD1, EFS, and OS) were tested for all possible combinations with a maximum of three SNPs per model in multivariable logistic regression models for association with MRD1 and Cox-proportional hazard models for association with EFS and OS. Analysis for up to 3 SNP combinations was restricted due to computational challenges as increasing the maximum number of SNPs per model drastically increases the number of models as 1000 permutations were run for each model. Models were ordered according to their Bayesian Information Criterion (BIC) and weight in favor of each model. One thousand permutation tests were performed for each model to determine statistical significance. The six unique SNPs from the most significant models for EFS and MRD1 were included in the development of the ACS10 score as described in the results section.
The multicenter AML02 clinical trial randomly assigned subjects to receive low dose ara-C (LDAC: 100 mg/m^2; n=91 patients) or high dose ara-C(HDAC: 3 g/m^2; n=75 patients) in combination with daunorubicin and etoposide as the first course of chemotherapy as described above in patient cohort section. Thus, the association of SNPs with outcome within each arm separately was also explored (Table 5).

[1] = rs4917384 (NT5C2, WT C, VAR T), MOI D
[2] = rs4980345 (SLC28A1, WT G, VAR A), MOI A
[3] = rs6552622 (DCTD, WT C, VAR G), MOI D
[4] = rs6742272 (RRM2, WT C, VAR G), MOI A
[5] = rs6834938 (DCTD, WT C, VAR T), MOI R
[6] = rs6946062 (NT5C3, WT T, VAR C), MOI D
[7] = rs7533657 (CTPS1, WT C, VAR T), MOI R
[8] = rs7543016 (CMPK1, WT C, VAR G), MOI R
[9] = rs7776847 (NT5C3, WT G, VAR A), MOI A
[10] = rs7874528 (SLC28A3, WT G, VAR T), MOI D
[11] = rs10252880 (NT5C3, WT G, VAR C), MOI A
[12] = rs10767827 (RRM1, WT G, VAR T), MOI D
[13] = rs10786736 (NT5C2, WT G, VAR C), MOI D
[14] = rs10916819 (CDA, WT A, VAR G), MOI D
[15] = rs11140525 (SLC28A3, WT G, VAR A), MOI A
[16] = rs11191558 (NT5C2, WT G, VAR A), MOI D
[17] = rs11737887 (DCTD, WT T, VAR C), MOI A
[18] = rs12554292 (SLC28A3, WT C, VAR T), MOI D
[19] = rs12806698 (RRM1, WT C, VAR A), MOI D
[20] = rs17103168 (CMPK1, WT A, VAR G), MOI D

SMILES: Nc1ccn([C@@H]2O[C@H](CO)[C@@H](O)[C@@H]2O)c(=O)n1 [LDAC, cytarabine]
- EFS HR (95% CI) [1]: 1.04 (0.76-1.44)
- MRD1 OR (95% CI) [1]: 0.78 (0.51-1.19)
- OS HR (95% CI) [1]: 0.87 (0.58-1.29)
- EFS HR (95% CI) [2]: 1.81 (1-3.26)
- MRD1 OR (95% CI) [2]: 1.08 (0.45-2.58)
- OS HR (95% CI) [2]: 1.84 (0.95-3.55)
- EFS HR (95% CI) [3]: 1.05 (0.7-1.59)
- MRD1 OR (95% CI) [3]: 0.86 (0.49-1.49)
- OS HR (95% CI) [3]: 1.22 (0.77-1.94)
- EFS HR (95% CI) [4]: 1.5 (0.95-2.36)
- MRD1 OR (95% CI) [4]: 0.49 (0.25-0.96)
- OS HR (95% CI) [4]: 1.43 (0.83-2.48)
- EFS HR (95% CI) [5]: 1.4 (0.83-2.35)
- MRD1 OR (95% CI) [5]: 1.92 (0.82-4.48)
- OS HR (95% CI) [5]: 1.75 (1.02-3)
- EFS HR (95% CI) [6]: 0.75 (0.54-1.04)
- MRD1 OR (95% CI) [6]: 0.94 (0.61-1.46)
- OS HR (95% CI) [6]: 0.58 (0.39-0.87)
- EFS HR (95% CI) [7]: 1.12 (0.62-2.02)
- MRD1 OR (95% CI) [7]: 0.9 (0.36-2.27)
- OS HR (95% CI) [7]: 1.05 (0.51-2.16)
- EFS HR (95% CI) [8]: 0.85 (0.55-1.32)
- MRD1 OR (95% CI) [8]: 2.01 (1.13-3.58)
- OS HR (95% CI) [8]: 0.67 (0.37-1.23)
- EFS HR (95% CI) [9]: 1.15 (0.64-2.09)
- MRD1 OR (95% CI) [9]: 0.92 (0.42-2)
- OS HR (95% CI) [9]: 1.91 (1.01-3.62)
- EFS HR (95% CI) [10]: 0.97 (0.66-1.44)
- MRD1 OR (95% CI) [10]: 1.93 (1.12-3.32)
- OS HR (95% CI) [10]: 0.89 (0.54-1.45)
- EFS HR (95% CI) [11]: 1.21 (0.74-1.98)
- MRD1 OR (95% CI) [11]: 0.97 (0.51-1.82)
- OS HR (95% CI) [11]: 1.98 (1.13-3.44)
- EFS HR (95% CI) [12]: 1.09 (0.76-1.57)
- MRD1 OR (95% CI) [12]: 0.98 (0.6-1.61)
- OS HR (95% CI) [12]: 0.97 (0.61-1.53)
- EFS HR (95% CI) [13]: 1.45 (1.03-2.03)
- MRD1 OR (95% CI) [13]: 1.1 (0.66-1.83)
- OS HR (95% CI) [13]: 1.37 (0.9-2.08)
- EFS HR (95% CI) [14]: 1.77 (1.14-2.75)
- MRD1 OR (95% CI) [14]: 1.75 (1.08-2.83)
- OS HR (95% CI) [14]: 2.05 (1.12-3.74)
- EFS HR (95% CI) [15]: 0.98 (0.63-1.54)
- MRD1 OR (95% CI) [15]: 1.44 (0.81-2.58)
- OS HR (95% CI) [15]: 1.16 (0.68-1.97)
- EFS HR (95% CI) [16]: 1.49 (1.05-2.1)
- MRD1 OR (95% CI) [16]: 0.96 (0.56-1.64)
- OS HR (95% CI) [16]: 1.32 (0.85-2.05)
- EFS HR (95% CI) [17]: 1.39 (0.73-2.66)
- MRD1 OR (95% CI) [17]: 0.95 (0.4-2.25)
- OS HR (95% CI) [17]: 1.76 (0.8-3.86)
- EFS HR (95% CI) [18]: 0.71 (0.42-1.2)
- MRD1 OR (95% CI) [18]: 1.26 (0.72-2.21)
- OS HR (95% CI) [18]: 0.78 (0.43-1.42)
- EFS HR (95% CI) [19]: 0.98 (0.69-1.39)
- MRD1 OR (95% CI) [19]: 1.14 (0.72-1.8)
- OS HR (95% CI) [19]: 1.19 (0.79-1.79)
- EFS HR (95% CI) [20]: 0.96 (0.69-1.32)
- MRD1 OR (95% CI) [20]: 0.55 (0.35-0.87)
- OS HR (95% CI) [20]: 1.03 (0.69-1.52)
